Laboratory results taken from US12583852B2, “Heterocycle derivative” (JW PHARMACEUTICAL CORPORATION, priority 2018, dated 2026).

Tested on: human dermal papilla cells
Assay: Promotion of proliferation of human dermal papilla cells (CellTiter-Glo Luminescent cell viability assay)
Format: cell-based
Conditions: human dermal papilla cells (ScienCell, 2499); drug 0 to 30 μM; 48 hours; CellTiter-Glo luminescence; compared to DMSO-treated control group
Description: The effect of promoting cell proliferation by the drug was analyzed using human dermal papilla cells (ScienCell, 2499). Human dermal papilla cells cultured using Mesenchymal Stem Cell Medium (ScienCell, 7501) medium were seeded at a density of 3×10^3 cells/well and in a volume of 100 μl in a 96-well plate, incubated overnight at 37° C. and 5% CO2, treated with the drug at different concentrations ranging from 0 to 30 μM in a volume of 100 μL, and incubated at 37° C. and 5% CO2 for 48 hours. CellTiter-Glo Luminescent cell viability assay was performed according to the manufacturer's protocol (Promega, G7573) to detect cell proliferation. Luminescence was measured using an Envision 2102 multilabeled reader (PerkinElmer) equipment, and the cell proliferation rate was analyzed by the activity of the drug-treated group compared to the DMSO-treated group (control group), which is a solvent of the drug.

| SMILES | Maximum DP cell proliferation (%) |
| --- | --- |
| Nc1n[nH]c2nc(Nc3cc(O)cc4c3CCC4)c(F)cc12 [Compound 56, 7-[(3-amino-5-fluoro-1H-pyrazolo[3,4-b]pyridin-6-yl)amino]indan-5-ol] | 7.3 |
| Nc1n[nH]c2nc(Nc3c(O)ccc4c3CCC4)c(F)cc12 [Compound 57, 4-[(3-amino-5-fluoro-1H-pyrazolo[3,4-b]pyridin-6-yl)amino]indan-5-ol] | 3.1 |
| Cc1c(Nc2cccc3c2CCC3)nc2[nH]nc(N)c2c1C [Compound 58, N6-(2,3-dihydro-1H-inden-4-yl)-4,5-dimethyl-1H-pyrazolo[3,4-b]pyridine-3,6-diamine] | 13 |
| Nc1n[nH]c2nc(Nc3cccc(Cl)c3Cl)c(F)cc12 [Compound 59, N6-(2,3-dichlorophenyl)-5-fluoro-1H-pyrazolo[3,4-b]pyridine-3,6-diamine] | 15 |
| Nc1n[nH]c2nc(Nc3cccc4ncccc34)c(F)cc12 [Compound 60, 5-fluoro-N6-(quinolin-5-yl)-1H-pyrazolo[3,4-b]pyridine-3,6-diamine] | 6.1 |
| Nc1n[nH]c2nc(Nc3cccc(C(F)F)c3F)c(F)cc12 [Compound 61, N6-(3-(difluoromethyl)-2-fluorophenyl)-5-fluoro-1H-pyrazolo[3,4-b]pyridine-3,6-diamine] | 11 |
| Nc1n[nH]c2nc(Nc3cccc(F)c3C(F)(F)F)c(F)cc12 [Compound 62, 5-fluoro-N6-(3-fluoro-2-(trifluoromethyl)phenyl)-1H-pyrazolo[3,4-b]pyridine-3,6-diamine] | 6.2 |
| Nc1n[nH]c2nc(Nc3cccc(C(F)(F)F)c3F)c(F)cc12 [Compound 64, 5-fluoro-N6-(2-fluoro-3-(trifluoromethyl)phenyl)-1H-pyrazolo[3,4-b]pyridine-3,6-diamine] | 16 |
| Nc1n[nH]c2nc(Nc3cccc(C(F)(F)F)c3F)ccc12 [Compound 65, N6-[2-fluoro-3-(trifluoromethyl)phenyl]-1H-pyrazolo[3,4-b]pyridine-3,6-diamine] | 10 |
| Nc1n[nH]c2nc(Nc3cccc(C(F)(F)F)c3F)cnc12 [Compound 66, N6-[2-fluoro-3-(trifluoromethyl)phenyl]-1H-pyrazolo[3,4-b]pyrazine-3,6-diamine] | 25 |
| Cc1c(Cl)cccc1Nc1nc2[nH]nc(N)c2cc1F [Compound 67, N6-(3-chloro-2-methylphenyl)-5-fluoro-1H-pyrazolo[3,4-b]pyridine-3,6-diamine] | 13 |
| Nc1n[nH]c2nc(Nc3cc(C(F)(F)F)ccc3F)c(F)cc12 [Compound 68, 5-fluoro-N6-(2-fluoro-5-(trifluoromethyl)phenyl)-1H-pyrazolo[3,4-b]pyridine-3,6-diamine] | 4.5 |
| Nc1n[nH]c2nc(Nc3ccc(C(F)(F)F)c(F)c3)c(F)cc12 [Compound 72, 5-fluoro-N6-[3-fluoro-4-(trifluoromethyl)phenyl]-1H-pyrazolo[3,4-b]pyridine-3,6-diamine] | 6.8 |
| Nc1n[nH]c2nc(Nc3cc(F)cc(C(F)(F)F)c3F)c(F)cc12 [Compound 73, N6-[2,5-difluoro-3-(trifluoromethyl)phenyl]-5-fluoro-1H-pyrazolo[3,4-b]pyridine-3,6-diamine] | 14 |
| Nc1n[nH]c2nc(Nc3ccc(Cl)c(C(F)F)c3)c(F)cc12 [Compound 75, N6-(4-chloro-3-(difluoromethyl)phenyl)-5-fluoro-1H-pyrazolo[3,4-b]pyridine-3,6-diamine] | 3 |
| Cc1ccc(Cl)c(Nc2nc3[nH]nc(N)c3cc2F)c1F [Compound 76, N6-(6-chloro-2-fluoro-3-methylphenyl)-5-fluoro-1H-pyrazolo[3,4-b]pyridine-3,6-diamine] | 4 |
| Nc1n[nH]c2nc(Nc3cccc(C(F)(F)F)c3Cl)c(F)cc12 [Compound 77, N6-(2-chloro-3-(trifluoromethyl)phenyl)-5-fluoro-1H-pyrazolo[3,4-b]pyridine-3,6-diamine] | 15 |
| N#Cc1cccc(Nc2nc3[nH]nc(N)c3cc2F)c1F [Compound 79, 3-[(3-amino-5-fluoro-1H-pyrazolo[3,4-b]pyridin-6-yl)amino]-2-fluoro-benzonitrile] | 3.6 |
| Nc1n[nH]c2nc(Nc3ccc(F)c(C(F)(F)F)c3F)c(F)cc12 [Compound 80, N6-(2,4-difluoro-3-(trifluoromethyl)phenyl)-5-fluoro-1H-pyrazolo[3,4-b]pyridine-3,6-diamine] | 6 |

| SMILES | Maximum DP cell proliferation (%) |
| --- | --- |
| Cc1c(F)cccc1Nc1nc2[nH]nc(N)c2cc1F [Compound 82, 5-fluoro-N6-(3-fluoro-2-methylphenyl)-1H-pyrazolo[3,4-b]pyridine-3,6-diamine] | 14 |
| Cc1nc(Nc2cccc3c2CCC3)nc2[nH]nc(N)c12 [Compound 84, N6-(2,3-dihydro-1H-inden-4-yl)-4-methyl-1H-pyrazolo[3,4-d]pyrimidine-3,6-diamine] | 7.4 |
| Nc1n[nH]c2nc(Nc3cccc4c3CCC4(F)F)c(F)cc12 [Compound 85, N6-(1,1-difluoro-2,3-dihydro-1H-inden-4-yl)-5-fluoro-1H-pyrazolo[3,4-b]pyridine-3,6-diamine] | 15 |
| CC(=O)n1nc(N)c2cc(F)c(Nc3cccc4c3CCC4)nc21 [Compound 88, 1-(3-amino-6-((2,3-dihydro-1H-inden-4-yl)amino)-5-fluoro-1H-pyrazolo[3,4-b]pyridin-1-yl)ethan-1-one] | 8 |
| O=C(Nc1n[nH]c2nc(Nc3cccc4c3CCC4)c(F)cc12)C1CCCC1 [Compound 89, N-(6-((2,3-dihydro-1H-inden-4-yl)amino)-5-fluoro-1H-pyrazolo[3,4-b]pyridin-3-yl)cyclopentanecarboxamide] | 0.4 |
| Cn1nc(N)c2cc(F)c(Nc3cccc4c3CCC4)nc21 [Compound 90, N6-(2,3-dihydro-1H-inden-4-yl)-5-fluoro-1-methyl-1H-pyrazolo[3,4-b]pyridine-3,6-diamine] | 13 |
| O=C(Nc1n[nH]c2nc(Nc3cccc4c3CCC4)c(F)cc12)c1ccncc1 [Compound 91, N-(6-((2,3-dihydro-1H-inden-4-yl)amino)-5-fluoro-1H-pyrazolo[3,4-b]pyridin-3-yl)isonicotinamide] | 6.4 |
| CC(=O)Nc1n[nH]c2nc(Nc3cccc4c3CCC4)c(F)cc12 [Compound 92, N-(6-((2,3-dihydro-1H-inden-4-yl)amino)-5-fluoro-1H-pyrazolo[3,4-b]pyridin-3-yl)acetamide] | 8 |
| Nc1nn(Cc2ccccc2)c2nc(Nc3cccc4c3CCC4)c(F)cc12 [Compound 93, 1-benzyl-N6-(2,3-dihydro-1H-inden-4-yl)-5-fluoro-1H-pyrazolo[3,4-b]pyridine-3,6-diamine] | 2.8 |
| CC(=O)Cn1nc(N)c2cc(F)c(Nc3cccc4c3CCC4)nc21 [Compound 94, 1-(3-amino-6-((2,3-dihydro-1H-inden-4-yl)amino)-5-fluoro-1H-pyrazolo[3,4-b]pyridin-1-yl)propan-2-one] | 18 |
| CN(C)CCn1nc(N)c2cc(F)c(Nc3cccc4c3CCC4)nc21 [Compound 96, N6-(2,3-dihydro-1H-inden-4-yl)-1-(2-(dimethylamino)ethyl)-5-fluoro-1H-pyrazolo[3,4-b]pyridine-3,6-diamine] | 1.2 |
| O=C1c2ccccc2C(=O)N1c1nn(C2CCCCO2)c2nc(Nc3cccc4c3CCC4)c(F)cc12 (stereo not shown) [Compound 97, 2-(6-((2,3-dihydro-1H-inden-4-yl)amino)-5-fluoro-1-(tetrahydro-2H-pyran-2-yl)-1H-pyrazolo[3,4-b]pyridin-3-yl)isoindoline-1,3-dione] | 10 |
| Nc1nn(CC(=O)c2ccccc2)c2nc(Nc3cccc4c3CCC4)c(F)cc12 [Compound 100, 2-(3-amino-6-((2,3-dihydro-1H-inden-4-yl)amino)-5-fluoro-1H-pyrazolo[3,4-b]pyridin-1-yl)-1-phenylethan-1-one] | 0.8 |
| COC(=O)CNc1n[nH]c2nc(Nc3cccc4c3CCC4)c(F)cc12 [Compound 101, methyl (6-((2,3-dihydro-1H-inden-4-yl)amino)-5-fluoro-1H-pyrazolo[3,4-b]pyridin-3-yl)glycinate] | 9.7 |
| CNc1n[nH]c2nc(Nc3cccc4c3CCC4)c(F)cc12 [Compound 102, 5-fluoro-N6-indan-4-yl-N3-methyl-1H-pyrazolo[3,4-b]pyridine-3,6-diamine] | 13 |
| Fc1cc2cn[nH]c2nc1Nc1cccc2c1CCC2 [Compound 104, N-(2,3-dihydro-1H-inden-4-yl)-5-fluoro-1H-pyrazolo[3,4-b]pyridin-6-amine] | 15 |
| CN(C)c1n[nH]c2nc(Nc3cccc4c3CCC4)c(F)cc12 [Example 105, N6-(2,3-dihydro-1H-inden-4-yl)-5-fluoro-N3,N3-dimethyl-1H-pyrazolo[3,4-b]pyridine-3,6-diamine] | 12 |
| CS(=O)(=O)Nc1n[nH]c2nc(Nc3cccc4c3CCC4)c(F)cc12 [Example 106, N-(6-((2,3-dihydro-1H-inden-4-yl)amino)-5-fluoro-1H-pyrazolo[3,4-b]pyridin-3-yl)methanesulfonamide] | 4.8 |
